Reference: US9464064B2, “HCV helicase inhibitors and methods of use thereof” (University of Kansas, priority 2011, dated 2016)
Starred links: 1 amine or outer side, 2 acyl side, 3 side chain; linkers in the order of their positions; H or OH if unused. Positions of bridges follow the written chain, without caps; N, C: chain ends. Non-standard residues stand in square brackets, D forms with d. Residues, ends and D or L forms follow the SMILES beside them. Chains are numbered I, II in the order given. *: point of attachment. Actinocin(1to9) = Cc1c2oc3c(C)ccc(C(=O)[*:2])c3nc-2c(C(=O)[*:1])c(N)c1=O; NMeV = CN[C@H](C(=O)O)C(C)C; Sar = CNCC(=O)O; CH2Cl = ClC*

Target: T1, HCV NS3 helicase NS3h_1b(con1) (Hepatitis C virus genotype 1b, UniProt Q9WMX2)
T1 construct: truncated C-terminally His-tagged NS3 proteins lacking the N-terminal protease, called NS3h; His-tag (C); made in house
Assay: MBHA screen of NCI mechanistic set library at 20 μM (percent inhibition, compound interference)
Format: biochemical
Conditions: compounds at 20 μM; for Inh. (%) (Inhibition): calculated from Equation 1
Summary of the method: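 Molecular beacon-based DNA unwinding assay; compounds screened at 20 μM in triplicate, with DMSO-only negative and 500 nM dT20 positive controls. Fluorescence (ex 643/em 670 nm) was read before and 30 min after adding ATP to 1 mM. Percent inhibition came from the change relative to DMSO controls; interference from pre-ATP fluorescence versus DMSO controls.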

[1] = MBHA with DNA substrate, assay interference calculated with Equation 2
[2] = assay interference calculated with Equation 2 (fluorescence vs DMSO-only controls before ATP)

T1 sequence (Q9WMX2 1192-1657): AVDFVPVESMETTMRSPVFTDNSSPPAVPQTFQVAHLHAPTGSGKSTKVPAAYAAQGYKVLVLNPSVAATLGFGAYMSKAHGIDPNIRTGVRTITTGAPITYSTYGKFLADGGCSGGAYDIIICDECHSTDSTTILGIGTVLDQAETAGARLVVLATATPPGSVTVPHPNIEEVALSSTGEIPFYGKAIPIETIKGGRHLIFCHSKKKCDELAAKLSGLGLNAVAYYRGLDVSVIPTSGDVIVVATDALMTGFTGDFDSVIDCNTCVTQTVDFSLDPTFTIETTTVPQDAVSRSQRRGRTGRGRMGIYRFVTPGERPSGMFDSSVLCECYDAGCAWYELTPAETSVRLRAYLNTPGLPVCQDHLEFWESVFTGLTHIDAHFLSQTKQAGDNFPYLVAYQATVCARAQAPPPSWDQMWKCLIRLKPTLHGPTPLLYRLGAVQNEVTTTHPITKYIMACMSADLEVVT

| Compound | Int.* (Ratio) (Interference) [1] | Inh. (%) (Inhibition) (MBHA with DNA substrate) | Inh. (%) (Inhibition) (MBHA with a DNA substrate) | Int.* (Ratio) (Interference) [2] |
| --- | --- | --- | --- | --- |
| Cc1ccc(NC(=O)/C=C/c2ccccc2)c(C)c1 [Compound 191389] | 1.06 | −2.3 |  |  |
| Cc1c(C(=O)C/C(=N\O)C(=O)Nc2cc(Cl)c(Cl)cc2Cl)[n+](=O)c2ccccc2n1[O-] [Compound 635544] |  |  | −21.9 | 0.82 |
| CCOC(OC1=C(C#N)CCC1)C(C)[Se]c1ccccc1 (stereo not drawn) [Compound 646189] | 0.92 | −1.0 |  |  |
| Cc1cc([N+](=O)[O-])ccc1Nc1cccc(Cl)c1C [Compound 625641] |  |  | −37.8 | 1.20 |
| C=C1C(=O)OC2CC1C(OC(C)=O)C/C(C)=C/CC/C(C)=C\CCC2(C)O (stereo not drawn) [Compound 36437] | 0.99 | −17.3 |  |  |
| Cc1cc(O)c2c(c1)C(=O)c1cc(O)cc(O)c1C2=O [Compound 408120] |  |  | −29.4 | 1.05 |
| COc1ccc(/C=C2\CCc3ccccc3C2=O)cc1OC [Compound 643175] | 0.93 | −17.5 |  |  |
| CCOC(C)C(C=NNC(N)=S)=NNC(N)=S (stereo not drawn) [Compound 82116] |  |  | −6.7 | 1.10 |
| N#CC(=S)Nc1ccc(F)cc1 [Compound 369317] | 0.95 | 2.8 |  |  |
| COC(=O)C1CCC(=O)N1C(c1ccc(OC)cc1)c1cc(OC)c(OC)c(OC)c1 (stereo not drawn) [Compound 673622] | 1.08 | −9.6 |  |  |
| CCC1=C(C[C@H]2NCCc3cc(OC)c(OC)cc32)C[C@H]2c3cc(OC)c(OC)cc3CCN2C1 [Compound 129414] |  |  | 12.0 | 1.08 |
| C[C@]12C=CC(=O)C=C1[C@@H](F)C[C@H]1[C@@H]3CC[C@](O)(C(=O)CO)[C@@]3(C)C[C@H](O)[C@@]12F [Compound 77021] |  |  | 9.8 | 1.00 |
| Cc1cc(N(CC(C)Br)CC(C)Br)ccc1N=Nc1ccccc1C(=O)O (stereo not drawn) [Compound 240419] | 0.94 | −2.7 |  |  |
| CCN(CC)CCOc1ccc(C(O)(Cc2ccc(OC)cc2)c2ccccc2)cc1 (stereo not drawn) [Compound 19857] |  |  | 7.4 | 1.05 |
| Cc1c2ccncc2cc2c1[nH]c1ccccc12 [Compound 87206] | 0.92 | 55.6 |  |  |
| CN(C)c1ccc(/C=C2/C=Cc3ccccc32)cc1 [Compound 80087] |  |  | −7.0 | 1.17 |
| CC1(C)C2CCC1(CS(=O)(=O)O)C(=O)C2.CN1C(c2ccccc2)CC(=NO)CC1c1ccccc1 (stereo not drawn) [Compound 363744] | 1.04 | 17.2 |  |  |
| Nc1cc2[nH]cnc2c(=O)[nH]1 [Compound 261726] |  |  | 9.6 | 0.96 |
| CC[C@H](C)[C@@H]1NC(=O)[C@@H](NC(=O)c2c3nc4c(C(=O)N[C@@H]5C(=O)N[C@@H](C(C)C)C(=O)N6CCC[C@H]6C(=O)N(C)CC(=O)N(C)[C@@H](C(C)C)C(=O)O[C@@H]5C)ccc(C)c4oc-3c(C)c(=O)c2N)[C@@H](C)OC(=O)[C@H](C(C)C)N(C)C(=O)CN(C)C(=O)[C@@H]2CCCN2C1=O [Compound 18268] (I: TIP[Sar][NMeV] / II: TVP[Sar][NMeV]; ester I:1-I:C, II:1-II:C; linker I:N-II:N via Actinocin(1to9)) | 0.61 | 27.6 |  |  |
| CCN1CCC(O)(/C=C/c2ccc(C)cc2)C(C(=O)/C=C/c2ccc(C)cc2)C1.Cl (stereo not drawn) [Compound 657298] | 1.01 | −17.3 |  |  |
| NCCCNCCSP(=O)(O)O [Compound 296961] | 0.92 | 17.5 |  |  |
| CNC(=O)c1cc(NC(=O)N(CCC#N)CCN(C(=O)N[C@@H](Cc2ccccc2)C(=O)N[C@@H](CC(C)C)C(=O)NC)c2ccccc2)ccc1OC [Compound 688363] | 0.96 | −1.6 |  |  |
| Br.COC1CN(C)C(=Nc2cccc3ccccc23)S1 (stereo not drawn) [Compound 135996] | 1.07 | −14.0 |  |  |
| COC1CC(C)C(OC)c2cc(O)cc(c2O)NC(=O)/C(C)=C/C=C\C(C)C(OC(N)=O)/C(C)=C/C(C)C1OC (stereo not drawn) [Compound 330500] |  |  | 12.0 | 1.04 |
| CCOC(=O)C1=C(C)NC(=S)NC1c1ccccc1 (stereo not drawn) [Compound 643910] |  |  | −21.3 | 1.06 |
| CCN1C=C/C(=C\C=C\c2cc[n+](CC)c3ccccc23)c2ccccc21.[I-] [Compound 34391] | 0.24 | 100.6 |  |  |

| Compound | Int.* (Ratio) (Interference) [1] | Inh. (%) (Inhibition) (MBHA with DNA substrate) | Inh. (%) (Inhibition) (MBHA with a DNA substrate) | Int.* (Ratio) (Interference) [2] |
| --- | --- | --- | --- | --- |
| CCC[CH2][Pb]([Cl])([CH2]CCC)[CH2]CCC [Compound 168597] | 0.98 | 2.6 |  |  |
| CCOC(=O)NC1=C(N2CC2)C(=O)C(NC(=O)OCC)=C(N2CC2)C1=O [Compound 182986] | 1.18 | −16.6 |  |  |
| CC(C)=CCC1=C(O)c2ccccc2C(=O)C1=O [Compound 11905] |  |  | −4.3 | 0.80 |
| N[C@H](C(=O)O)[C@@H]1CC(Cl)=NO1 [Compound 163501] |  |  | 10.3 | 0.91 |
| COc1ccc(O)c2c(=O)c3c(OC)cc4c(c3oc12)[C@@H]1C=CO[C@@H]1O4 [Compound 178249] | 0.87 | 2.4 |  |  |
| COc1cc(O)c2c(c1)C(=O)c1cc3c(c(O)c1C2=O)C(OC1OC(C)C(O)C(O)C1OC)C(OC)C(C)(O)C3=O (stereo not drawn) [Compound 93419] | 0.91 | 38.9 |  |  |
| CCC(C#N)(c1ccccc1)N(CCc1ccccc1)C(=O)c1ccccc1 (stereo not drawn) [Compound 681741] | 0.92 | −16.2 |  |  |
| CCCC(=O)[O-].[Na+] [Compound 174280] | 0.90 | 1.1 |  |  |
| Cc1[nH]c(=O)nc(N/N=C/c2ccc(Cl)cc2)c1C(=O)Nc1ccc(Cl)cc1 [Compound 624947] | 0.86 | −14.2 |  |  |
| COc1ccc(C=CC(=O)Oc2cc(O)cc(O)c2)cc1 [Compound 175296] | 0.90 | 4.7 |  |  |
| NP(=O)(Oc1c2occc2cc2ccc(=O)oc12)N(CCCl)CCCl (stereo not drawn) [Compound 345081] |  |  | 9.2 | 0.95 |
| O=C(NCCCCCCCCNC(=O)c1cccc2ccccc12)c1cccc2ccccc12 [Compound 629738] | 0.97 | 5.9 |  |  |
| Cc1ccc(/C=C2\CNC/C(=C\c3ccc(C)cc3)C2=O)cc1.Cl [Compound 632839] | 0.87 | 20.4 |  |  |
| Nc1ccc(S(=O)(=O)Nc2cnc3c(Cl)cccc3n2)cc1 [Compound 339004] | 0.89 | 18.5 |  |  |
| CC(=O)NC(CC(C)C)C(=O)NC(Cc1ccccc1)C(=O)CCl (stereo not drawn) [Compound 173905] (Ac-Leu-Phe-CH2Cl; configuration not given here) | 1.11 | −12.0 |  |  |
| CO[C@H]1/C=C\C=C(/C)C(=O)NC2=CC(=O)C(N)=C(C[C@@H](C)C[C@H](OC)[C@H](O)[C@@H](C)/C=C(\C)[C@@H]1OC(N)=O)C2=O [Compound 255109] | 0.77 | 31.7 |  |  |
| CC(=O)C(N1CCCCC1)C(O)(C(F)(F)F)C(F)(F)F (stereo not drawn) [Compound 664327] | 0.82 | 25.5 |  |  |
| NC(=O)NO [Compound 32065] | 1.01 | 3.7 |  |  |
| Cc1cc(N)c2ccccc2[n+]1CCCCCCCCCC[n+]1c(C)cc(N)c2ccccc21.[Cl-].[Cl-] [Compound 166454] | 0.18 | 60.4 |  |  |
| CCOC(=O)CNC(=O)NC12CC3CC(CC(C3)C1)C2 [Compound 208914] |  |  | −4.1 | 1.09 |
| Cc1ccccc1NC(=O)C(=O)C(C#N)c1ccccc1C (stereo not drawn) [Compound 636132] | 0.90 | 4.4 |  |  |
| O=C1C=C(Nc2ccccc2C(=O)CC(=O)C(=O)Nc2ccc(Cl)c(Cl)c2)c2ccccc2C1=O [Compound 641250] | 0.95 | −13.6 |  |  |
| Cn1c(=O)[nH]c2nncnc2c1=O [Compound 99733] | 1.02 | −17.9 |  |  |
| O=C(CC1(O)C(=O)Nc2c(Cl)cc(Cl)cc21)c1cccc([N+](=O)[O-])c1 (stereo not drawn) [Compound 635438] |  |  | −23.8 | 1.02 |
| C=C(C#N)C(=O)OCC(CC)CC.C=C(C#N)C(=O)OCC(CC)CC.CS(C)=O.CS(C)=O.Nc1c(N=Nc2ccc(-c3ccc(N=Nc4cc(S(=O)(=O)[O-])c5ccccc5c4N)cc3)cc2)cc(S(=O)(=O)[O-])c2ccccc12.[Pt+2] [Compound 615593] | 0.91 | −17.7 |  |  |
